Experimental data reported in patent US8084649B2, “Herbicides” (Syngenta Crop Protection, inc., priority 2007, dated 2011).

How the values were obtained:
Format in all cases: in vivo
[1] = system: Alopecurus myosuroides (ALOMY); test: Pre-emergence herbicidal activity, glasshouse pot test; details: Alopecurus myosuroides, 480 h, rate 500 g/ha, evaluated after 20 days, read-out: Pre-emergence activity, ALOMY (100=total damage to plant; 0=no damage to plant)
Method in brief: (§1)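 Pre-emergence application: sprayed one day after seeding into pots of sterilised standard soil. After 20 days' growth in a greenhouse, percent damage was scored visually, 0 meaning unharmed and 100 total damage.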

[2] = system: Avena fatua (AVEFA); test: as above; details: Avena fatua, 480 h, rate 500 g/ha, evaluated after 20 days, read-out: Pre-emergence activity, AVEFA (100=total damage to plant; 0=no damage to plant)
Method in brief: as §1

[3] = system: Digitaria sanguinalis (DIGSA); test: as above; details: Digitaria sanguinalis, 480 h, rate 500 g/ha, evaluated after 20 days, read-out: Pre-emergence activity, DIGSA (100=total damage to plant; 0=no damage to plant)
Method in brief: as §1

[4] = system: Echinochloa crus-galli (ECHCG); test: as above; details: Echinochloa crus-galli, 480 h, rate 500 g/ha, evaluated after 20 days, read-out: Pre-emergence activity, ECHCG (100=total damage to plant; 0=no damage to plant)
Method in brief: as §1

[5] = system: Lolium perenne (LOLPE); test: as above; details: Lolium perenne, 480 h, rate 500 g/ha, evaluated after 20 days, read-out: Pre-emergence activity, LOLPE (100=total damage to plant; 0=no damage to plant)
Method in brief: as §1

[6] = system: Setaria faberi (SETFA); test: as above; details: Setaria faberi, 480 h, rate 500 g/ha, evaluated after 20 days, read-out: Pre-emergence activity, SETFA (100=total damage to plant; 0=no damage to plant)
Method in brief: as §1

[7] = system: Alopecurus myosuroides (ALOMY); test: Post-emergence herbicidal activity, glasshouse pot test; details: Alopecurus myosuroides, evaluated after 14 or 15 days, read-out: Post-emergence activity, ALOMY (100=total damage to plant; 0=no damage to plant); for pest or weed control at 500 g/ha: rate 500 g/ha; for pest or weed control at 125 g/ha: rate 125 g/ha
Method in brief: (§2)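 Visual damage ratings on a 0–100 scale (100 = plant killed) were taken 14 or 15 days after treatment. Seedlings had been raised for 10 days in sterilised soil in a glasshouse before spraying with an aqueous solution of the formulated active ingredient.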

[8] = system: Avena fatua (AVEFA); test: as above; details: Avena fatua, evaluated after 14 or 15 days, read-out: Post-emergence activity, AVEFA (100=total damage to plant; 0=no damage to plant); for pest or weed control at 500 g/ha: rate 500 g/ha; for pest or weed control at 125 g/ha: rate 125 g/ha
Method in brief: as §2

[9] = system: Digitaria sanguinalis (DIGSA); test: as above; details: Digitaria sanguinalis, evaluated after 14 or 15 days, read-out: Post-emergence activity, DIGSA (100=total damage to plant; 0=no damage to plant); for pest or weed control at 500 g/ha: rate 500 g/ha; for pest or weed control at 125 g/ha: rate 125 g/ha
Method in brief: as §2

[10] = system: Echinochloa crus-galli (ECHCG); test: as above; details: Echinochloa crus-galli, evaluated after 14 or 15 days, read-out: Post-emergence activity, ECHCG (100=total damage to plant; 0=no damage to plant); for pest or weed control at 500 g/ha: rate 500 g/ha; for pest or weed control at 125 g/ha: rate 125 g/ha
Method in brief: as §2

[11] = system: Lolium perenne (LOLPE); test: as above; details: Lolium perenne, evaluated after 14 or 15 days, read-out: Post-emergence activity, LOLPE (100=total damage to plant; 0=no damage to plant); for pest or weed control at 500 g/ha: rate 500 g/ha; for pest or weed control at 125 g/ha: rate 125 g/ha
Method in brief: as §2

[12] = system: Setaria faberi (SETFA); test: as above; details: Setaria faberi, evaluated after 14 or 15 days, read-out: Post-emergence activity, SETFA (100=total damage to plant; 0=no damage to plant); for pest or weed control at 500 g/ha: rate 500 g/ha; for pest or weed control at 125 g/ha: rate 125 g/ha
Method in brief: as §2

| Structure (SMILES) | pest or weed control at 500 g/ha [1] [%] | pest or weed control at 500 g/ha [2] [%] | pest or weed control at 500 g/ha [3] [%] | pest or weed control at 500 g/ha [4] [%] | pest or weed control at 500 g/ha [5] [%] | pest or weed control at 500 g/ha [6] [%] | pest or weed control at 500 g/ha [7] [%] | pest or weed control at 500 g/ha [8] [%] | pest or weed control at 500 g/ha [9] [%] | pest or weed control at 500 g/ha [10] [%] | pest or weed control at 500 g/ha [11] [%] | pest or weed control at 500 g/ha [12] [%] | pest or weed control at 125 g/ha [7] [%] | pest or weed control at 125 g/ha [8] [%] | pest or weed control at 125 g/ha [9] [%] | pest or weed control at 125 g/ha [10] [%] | pest or weed control at 125 g/ha [11] [%] | pest or weed control at 125 g/ha [12] [%] |
| --- | --- | --- | --- | --- | --- | --- | --- | --- | --- | --- | --- | --- | --- | --- | --- | --- | --- | --- |
| CCc1cc(C)cc(C)c1C1=C(O)CC2(CCOCC2)CC1=O [Compound T27] | 100 | 100 | 100 | 100 | 100 | 100 | 80 | 90 | 90 | 100 | 80 | 100 |  |  |  |  |  |  |
| Cc1cc(C)c(C2=C(O)CC3(CCS(=O)(=O)CC3)CC2=O)c(C)c1 [Compound T5] | 70 | 10 | 70 | 40 | 60 | 30 | 70 | 20 | 70 | 60 | 70 | 70 |  |  |  |  |  |  |
| CCc1cc(C)cc(CC)c1C1=C(O)CC(CC[S+](C)[O-])CC1=O (stereo not drawn) [Compound T15] | 100 | 80 | 100 | 100 | 100 | 90 | 90 | 80 | 100 | 100 | 100 | 80 |  |  |  |  |  |  |
| CCc1cc(C)cc(CC)c1C1=C(OC(=O)OCc2ccccc2)CC2(CCOCC2)CC1=O [Compound P17] | 100 | 100 | 100 | 100 | 100 | 100 |  |  |  |  |  |  | 90 | 80 | 70 | 70 | 80 | 70 |
| CCc1cc(C)cc(CC)c1C1=C(OC(C)=O)CC2(CCOCC2)CC1=O [Compound P1] | 100 | 100 | 100 | 100 | 100 | 100 |  |  |  |  |  |  | 50 | 60 | 50 | 50 | 30 | 30 |
| CCc1cc(C)cc(CC)c1C1=C(O)CC(COCOC)CC1=O (stereo not drawn) [Compound T23] | 80 | 70 | 100 | 100 | 80 | 70 | 90 | 80 | 90 | 100 | 90 | 100 |  |  |  |  |  |  |
